Measurements reported in US20150080438A1, “6,7-Dihydro-5H-benzo[7]annulene derivatives, processes for their preparation, pharmaceutical products comprising them and their use for preparing medicaments” (Bayer Intellectual Property GmbH, priority 2011, published 2015).
Structures can show the parent of a compound that is named as a salt.

What was measured:
[1] = tested on: uterus growth induced by 17β-estradiol; experiment: Anti-uterus growth test in the adult rat; assay type: in vivo; conditions: ovariectomized adult rat, percentage inhibition of uterus growth; for inhibition in vivo at 0.3 mg/kg: sc, 0.3 mg/kg s.c. d1-d3 with 1.5 μg/kg/day 17β-estradiol, read-out: Anti-oestrogenic activity in vivo in % at a dose of 0.3 mg/kg (rat); for Anti-oestrogenic activity in vivo in % at a dose of 1 mg/kg (rat): 1 mg/kg s.c. d1-d3 with 1.5 μg/kg/day 17β-estradiol
Text: The uterus of oestrogen-substituted rats can be used as a test model for detecting a direct action of substances with anti-oestrogenic properties. The parameter of oestrogenic action is estradiol-induced uterus growth in rats, which is inhibited by simultaneous administration of a substance with anti-oestrogenic action. The experimental animals (n=5-6 animals/group) were ovariectomized before the start of the test, to rule out the influence of endogenous oestrogens. After a phase of 6 to 10 days, the test substances are administered s.c. on 3 consecutive days (d1-d3) in combination with a substitution dose of 1.5 μg/kg/day of 17β-estradiol. 17β-estradiol alone serves as positive control, and the excipients serve as negative control. On day 4 (d4) the animals are killed, and the uteri and vaginae are removed and weighed. The organ weights are converted to mg/100 g body weight, then the mean value and the standard deviation are calculated for each dosage. The inhibition of uterus or vaginal growth induced by 17β-estradiol is shown as percentage inhibition. The selected claimed substances were investigated in adult female rats as described for their anti-oestrogenic, inhibitory action on the weight of the uterus. At the dosage used, the substances show a marked anti-oestrogenic action in vivo (Table 3 and Table 4).

[2] = tested on: ovarian estradiol synthesis; experiment: Stimulation of ovarian oestrogen synthesis (HPG axis) in hormonally intact adult rats; assay type: in vivo, rat; conditions: 3 mg/kg daily for 10 days, quotient of peripheral estradiol values after and before treatment
Text: The clinical use both of pure anti-oestrogens and of various SERMs for the treatment of premenopausal women is limited by their property of stimulating the ovaries through activation of the hypothalamic-pituitary-gonadal axis (HPG axis), which leads to the increase in peripheral estradiol levels (Palomba, S., Orio, F., Jr., Morelli, M., Russo, T., Pellicano, M., Zupi, E., Lombardi, G., Nappi, C., Panici, P. L., and Zullo, F. (2002). Raloxifene administration in premenopausal women with uterine leiomyomas: a pilot study. J Clin Endocrinol Metab 87, 3603-3608). This stimulation of the HPG axis is associated with penetration of the blood-brain barrier and penetration of the brain. To investigate the ovary-stimulating properties of the claimed pharmacological compounds, hormonally intact adult rats were treated with the substances daily for a period of 10 days. The study end point is the quotient of peripheral estradiol values after and before treatment.
Selected claimed pharmacological substances were investigated as described for their stimulating action on the HPG axis or ovarian estradiol synthesis. The selected substances show markedly less stimulation of the ovaries than the control compound raloxifene at equal dosages (cf. Table 5).

[3] = molecular target: T1, oestrogen receptor (ER) (Homo sapiens, UniProt P03372); experiment: Anti-oestrogenic action in MVLN cells (inhibition of estradiol-induced luciferase, transactivation antagonism); assay type: cell-based; conditions: inhibition of estradiol-induced luciferase activity, read-out: Anti-oestrogenic action in vitro: MVLN transactivation antagonism IC50
T1 construct: These MVLN cells express, along with the functional oestrogen receptor (ER), a reporter construct; endogenous in cells; host or cells: MVLN cells (MCF7 derivative with ER-responsive luciferase reporter)
T1 sequence (P03372 1-595): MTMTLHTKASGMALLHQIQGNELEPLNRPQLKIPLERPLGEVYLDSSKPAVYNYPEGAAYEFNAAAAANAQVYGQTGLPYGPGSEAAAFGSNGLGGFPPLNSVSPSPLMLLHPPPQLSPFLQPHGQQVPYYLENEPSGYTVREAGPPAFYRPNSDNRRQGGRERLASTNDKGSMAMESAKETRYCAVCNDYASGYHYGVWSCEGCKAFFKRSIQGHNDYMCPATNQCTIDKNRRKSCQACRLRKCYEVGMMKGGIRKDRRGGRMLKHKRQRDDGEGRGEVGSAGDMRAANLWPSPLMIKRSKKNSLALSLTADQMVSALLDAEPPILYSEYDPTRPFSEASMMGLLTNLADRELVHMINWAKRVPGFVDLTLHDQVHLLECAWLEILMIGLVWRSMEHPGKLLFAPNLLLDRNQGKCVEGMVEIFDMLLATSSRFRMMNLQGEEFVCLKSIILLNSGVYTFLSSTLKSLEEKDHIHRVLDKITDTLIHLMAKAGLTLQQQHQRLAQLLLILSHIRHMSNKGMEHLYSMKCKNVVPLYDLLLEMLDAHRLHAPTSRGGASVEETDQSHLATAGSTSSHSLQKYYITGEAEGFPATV
Method in brief: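 MCF7-derived MVLN cells carrying an ER-driven luciferase reporter; test compounds applied with estradiol, and anti-oestrogenic action scored as inhibition of the estradiol-induced luciferase signal.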

| Stimulation of ovarian oestrogen synthesis: factor at a dose of 3 mg/kg rat [2] | IC50 [3] | Structure (SMILES) | inhibition in vivo at 0.3 mg/kg [1] | Anti-oestrogenic activity in vivo in % at a dose of 1 mg/kg (rat) [1] |
| --- | --- | --- | --- | --- |
| 1.8 | 5 nM | CN(CCCCCC1=C(c2cccc(O)c2)CCCc2cc(O)ccc21)CCCCS(=O)(=O)CCCC(F)(F)C(F)(F)F [Example 7, 8-(3-Hydroxyphenyl)-9-[5-(methyl{4-[(4,4,5,5,5-pentafluoropentyl)sulphonyl]butyl}amino)pentyl]-6,7-dihydro-5H-benzo[7]annulen-3-ol] | 31% |  |
| 2.4 | 1 nM | CN(CCCCCCC1=C(c2ccc(O)cc2)CCCc2cc(O)ccc21)CCCS(=O)(=O)CCCC(F)(F)C(F)(F)F [Example 27, 8-(4-Hydroxyphenyl)-9-[6-(methyl{3-[(4,4,5,5,5-pentafluoropentyl)sulphonyl]propyl}amino)hexyl]-6,7-dihydro-5H-benzo[7]annulen-3-ol] | 80% |  |
| 1.8 | 8 nM | CN(CCCCCC1=C(c2ccccc2)CCCc2cc(O)ccc21)CCC[S+]([O-])CCCC(F)(F)C(F)(F)F (racemic) [Example 2, 9-[5-(Methyl{3-[(RS)-(4,4,5,5,5-pentafluoropentyl)sulphinyl]propyl}amino)pentyl]-8-phenyl-6,7-dihydro-5H-benzo[7]annulen-3-ol] | 51% | 94% |
|  | 1 nM | CN(CCCCCC1=C(c2ccc(O)c(F)c2)CCCc2cc(O)ccc21)CCC[S+]([O-])CCCC(F)(F)C(F)(F)F (racemic) [Example 37, 8-(3-Fluoro-4-hydroxyphenyl)-9-[5-(methyl{3-[(RS)-(4,4,5,5,5-pentafluoropentyl)sulphinyl]propyl}amino)pentyl]-6,7-dihydro-5H-benzo[7]annulen-3-ol] | 59% |  |
|  | 2 nM | CN(CCCCCCC1=C(c2cc(O)ccc2F)CCCc2cc(O)ccc21)CCCS(=O)(=O)CCCC(F)(F)C(F)(F)F [Example 23, 8-(2-Fluoro-5-hydroxyphenyl)-9-[6-(methyl{3-[(4,4,5,5,5-pentafluoropentyl)sulphonyl]propyl}amino)hexyl]-6,7-dihydro-5H-benzo[7]annulen-3-ol] | 77% |  |
| 1.1 | 3 nM | CN(CCCCCCC1=C(c2ccc(F)c(O)c2)CCCc2cc(O)ccc21)CCCS(=O)(=O)CCCC(F)(F)C(F)(F)F [Example 29, 8-(4-Fluoro-3-hydroxyphenyl)-9-[6-(methyl{3-[(4,4,5,5,5-pentafluoropentyl)sulphonyl]propyl}amino)hexyl]-6,7-dihydro-5H-benzo[7]annulen-3-ol] | 61% |  |
|  | 4 nM | CN(CCCCCC1=C(c2cccc(O)c2)CCCc2cc(O)ccc21)CCCC[S+]([O-])CCCC(F)(F)C(F)(F)F (racemic) [Example 6, 8-(3-Hydroxyphenyl)-9-[5-(methyl{4-[(RS)-(4,4,5,5,5-pentafluoropentyl)sulphinyl]butyl}amino)pentyl]-6,7-dihydro-5H-benzo[7]annulen-3-ol] | 22% | 64% |
|  | 13 nM | CN(CCCCCCC1=C(c2ccc(F)c(O)c2)CCCc2c1ccc(O)c2Cl)CCCS(=O)(=O)CCCC(F)(F)C(F)(F)F [Example 24, 4-Chloro-8-(4-fluoro-3-hydroxyphenyl)-9-[6-(methyl{3-[(4,4,5,5,5-pentafluoropentyl)sulphonyl]propyl}amino)hexyl]-6,7-dihydro-5H-benzo[7]annulen-3-ol] | 14% |  |
|  | 3 nM | CN(CCCCCCC1=C(c2cccc(O)c2)CCCc2cc(O)ccc21)CCCS(=O)(=O)CCC(F)(F)F [Example 56, 8-(3-Hydroxyphenyl)-9-[6-(methyl{3-[(3,3,3-trifluoropropyl)sulphonyl]propyl}amino)hexyl]-6,7-dihydro-5H-benzo[7]annulen-3-ol] | 33% |  |
|  | 37 nM | CN(CCCCCC1=C(c2ccccc2)CCCc2cc(O)ccc21)CCCSCCCC(F)(F)C(F)(F)F [Example 1, 9-[5-(Methyl{3-[(4,4,5,5,5-pentafluoropentyl)sulphanyl]propyl}amino)pentyl]-8-phenyl-6,7-dihydro-5H-benzo[7]annulen-3-ol] |  | 65% |
|  | 3 nM | CN(CCCCCCC1=C(c2cccc(O)c2)CCCc2cc(O)ccc21)CCCS(=O)(=O)CCCC(F)(F)C(F)(F)F [Example 13, 8-(3-Hydroxyphenyl)-9-[6-(methyl{3-[(4,4,5,5,5-pentafluoropentyl)sulphonyl]propyl}amino)hexyl]-6,7-dihydro-5H-benzo[7]annulen-3-ol] | 79% |  |
|  | 5 nM | CN(CCCCCCC1=C(c2ccccc2)CCCc2cc(O)ccc21)CCC[S+]([O-])CCCC(F)(F)C(F)(F)F (racemic) [Example 64, 9-[6-(Methyl{3-[(RS)-(4,4,5,5,5-pentafluoropentyl)sulphinyl]propyl}amino)hexyl]-8-phenyl-6,7-dihydro-5H-benzo[7]annulen-3-ol] | 85% |  |
| 3.1 |  | O=C(c1ccc(OCCN2CCCCC2)cc1)c1c(-c2ccc(O)cc2)sc2cc(O)ccc12 [raloxifene hydrochloride, raloxifene, reference compound] |  |  |
| 1.7 | 2 nM | CN(CCCCCC1=C(c2ccc(O)c(F)c2)CCCc2cc(O)ccc21)CCCS(=O)(=O)CCCC(F)(F)C(F)(F)F [Example 38, 8-(3-Fluoro-4-hydroxyphenyl)-9-[5-(methyl{3-[(4,4,5,5,5-pentafluoropentyl)sulphonyl]propyl}amino)pentyl]-6,7-dihydro-5H-benzo[7]annulen-3-ol] | 57% |  |
|  | 3 nM | CN(CCCCCCC1=C(c2ccc(S(C)(=O)=O)cc2)CCCc2cc(O)ccc21)CCCS(=O)(=O)CCCC(F)(F)C(F)(F)F [Example 49, 8-(4-Mesylphenyl)-9-[6-(methyl{3-[(4,4,5,5,5-pentafluoropentyl)sulphonyl]propyl}amino)hexyl]-6,7-dihydro-5H-benzo[7]annulen-3-ol] | 72% |  |
